In US20260285853A1, “COMPOUNDS AND METHODS FOR MODULATING SPLICING” (REMIX THERAPEUTICS INC., priority 2023, published 2026):
Where a name gives a salt, the structure may show the parent alone.

How the values were obtained:
Format in all cases: cell-based
[1] = tested on: HTT mRNA; assay: Splicing RT-qPCR assay, canonical (CJ) and alternative (AJ) junction mRNA, K562 cells; settings: Homo sapiens, K562.3 cells, 24 hours; for AC50: read-out: HTT AJ (AC50, increase in AJ mRNA); for IC50: read-out: HTT CJ (IC50, decrease in CJ mRNA)
Description: (§1) Compounds described herein were used to modulate RNA transcript abundance in cells. The expression of a target mRNA was measured by detecting the formation of an exon-exon junction in the canonical transcript (CJ). A compound mediated exon-inclusion event was detected by observing an increase in formation of a new junction with an alternative exon (AJ). Real-time qPCR assays were used to detect these splicing switches and interrogate the potency of various compounds towards different target genes. A high-throughput real time quantitative PCR (RT-qPCR) assay was developed to measure these two isoforms of the mRNA (CJ and AJ) for exemplary genes, such as HTT, SMN2, and MYB, together with a control housekeeping gene, GAPDH or GUSB or PPIA, used for normalization. Briefly, the A673 or K562 cell line was treated with various compounds described herein (e.g., compounds of Formula (I)). After treatment, the levels of the HTT, MYB, or SMN2 mRNA targets were determined from each sample of cell lysate by cDNA synthesis followed by qPCR.
(§2) • Cells-to-CT 1-step kit: ThermoFisher A25602, Cells-to-CT lysis reagent: ThermoFisher 4391851C, TaqMan™ Fast Virus 1-Step Master Mix: ThermoFisher 4444436 • GAPDH: VIC-PL, ThermoFisher 4326317E (Assay: Hs99999905_m1)—used for K562/suspension cell lines • GUSB: VIC-PL, ThermoFisher 4326320E (Assay: Hs99999908_m1)—used for K562/suspension cell lines • PPIA: VIC-PL, ThermoFisher 4326316E (Assay: Hs99999904_m1)—used for A673/adherent cell lines
(§3) The K562 cell line was cultured in IMDM with 10% FBS. For K562, cells were diluted with full growth media and plated in either a 96-well plate (50,000 cells in 50 uL media per well) or a 384-well plate (8,000-40,000 cells in 45 uL media per well). An 11-point 3-fold serial dilution of the compounds were made in DMSO then diluted in media in an intermediate plate. Compound was transferred from the intermediate plate to the cell plate with the top dose at a final concentration of 10 uM in the well. Final DMSO concentration was kept at or below 0.25%. Final volume was 100 uL for 96-well plate and 50 uL for 384-well plate. The cell plate was then placed in an incubator at 37° C. with 5% CO2 for 24 hours.
(§4) The cells were then gently washed with 50 uL-100 uL cold PBS before proceeding to addition of lysis buffer. 30 uL-50 uL of room temperature lysis buffer with DNAse I (and optionally RNAsin) was added to each well. Cells were shaken/mixed thoroughly at room temperature for 5-10 minutes for lysis to take place and then 3 uL-5 uL of room temperature stop solution was added and wells were shaken/mixed again. After 2-5 minutes, the cell lysate plate was transferred to ice for RT-qPCR reaction setup. The lysates could also be frozen at −80° C. for later use.
(§5) In some cases, a direct lysis buffer was used. An appropriate volume of 3× lysis buffer (10 mM Tris, 150 mM NaCl, 1.5%-2.5% Igepal and 0.1-1 U/uL RNAsin, pH 7.4) was directly added to either K562 or A673 cells in media and mixed by pipetting 3 times. The plates were then incubated at room temperature with shaking/rocking for 20-50 minutes to allow for lysis to take place. After this time, the cell lysate plate was transferred to ice to set up for the RT-qPCR reactions. The lysates could also be frozen at −80° C. for later use.
(§6) To set up 10 uL RT-qPCR reactions, cell lysates were transferred to 384-well qPCR plates containing the master mix according to the table below. The plates were sealed, gently vortexed, and spun down before the run. The volumes were adjusted accordingly in some instances where the reaction was carried in 20 uL. The table below summarizes the components of the RT-qPCR reactions:
(§7) The RT-qPCR reaction was performed using a QuantStudio (ThermoFisher) under the following fast cycling conditions. All samples and standards were analyzed at least in duplicate. In some instances, bulk room temperature (RT) step of 5-10 minutes was completed for all plates before proceeding with qPCR. […]

[2] = tested on: MYB mRNA; assay: as above; settings: Homo sapiens, K562.3 cells, 24 hours; for AC50: read-out: MYB AJ (AC50, increase in AJ mRNA); for IC50: read-out: MYB CJ (IC50, decrease in CJ mRNA)
Description: as §1, §2, §3, §4, §5, §6, §7

[3] = tested on: HTT mRNA; assay: Gene panel canonical junction qPCR assay, decrease in CJ mRNA, Table 3; settings: decrease in canonical junction (CJ) mRNA, gene panel qPCR, Table 3
In short: (§8)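 A673 cells were plated, left to adhere for 24 h, then dosed; K562 cells were plated in 96- or 384-well format and dosed directly. Both were incubated 24 h at 37 °C with an 11-point 3-fold series (top 10 uM final). Canonical junction mRNA was then read by cDNA synthesis and qPCR.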

[4] = tested on: SMN2 mRNA; assay: as above; settings: decrease in canonical junction (CJ) mRNA, gene panel qPCR, Table 3
In short: as §8

[5] = tested on: MYB mRNA; assay: as above; settings: decrease in canonical junction (CJ) mRNA, gene panel qPCR, Table 3
In short: as §8

[6] = tested on: SH-SY5Y (human neuroblastoma) cells; assay: Cell viability, Cell Titer Glo 2.0 assay; settings: read-out: Viability SHSY5Y.3 GI50
In short: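 SH-SY5Y neuroblastoma cells are exposed to test compounds for 72 hours at 37 °C and 5% CO2, with final DMSO held at 0.1%. Cell viability is then measured with the CellTiter-Glo 2.0 assay.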

| IC50 [1] [nM] | IC50 [2] [nM] | IC50 [3] [nM] | IC50 [4] [nM] | IC50 [5] [nM] | GI50 [6] [nM] | Structure (SMILES) | AC50 [1] [nM] | AC50 [2] [nM] |
| --- | --- | --- | --- | --- | --- | --- | --- | --- |
| > 10000 | 100 to 1000 | > 10000 | < 100 | 100 to 1000 | 100 to 1000 | Cc1cn2cc(NC(=O)c3ccc(N4CC[C@H](NCC56CC(CO5)C6)C4)c4cn(C)nc34)cc(F)c2n1 [Compound 125, N-(8-fluoro-2-methyl-imidazo[1,2-a]-pyridin-6-yl)-2-methyl-4-[(3R)-3-(2-oxabicyclo-[2.1.1]hexan-1-ylmethyl-amino)pyrrolidin-1-yl][6.1]-indazole-7-carboxamide] | > 10000 | 100 to 1000 |
| 1000 to 10000 | > 10000 | 1000 to 10000 | 100 to 1000 | > 10000 | 1000 to 10000 | CN[C@H]1C[C@H](C)N(c2ccc(C(=O)Nc3cc(F)c4nc(C)cn4c3)c3nn(C)cc23)C1 [Compound 127, N-(8-fluoro-2-methyl-imidazo[1,2-a]pyridin-6-yl)-2-methyl-4-[(2S,4S)-2-methyl-4-(methylamino)-pyrrolidin-1-yl]indazole-7-carboxamide] | > 10000 | > 10000 |
| 1000 to 10000 | 100 to 1000 | 1000 to 10000 | < 100 | 100 to 1000 | 1000 to 10000 | Cc1cn2cc(NC(=O)c3ccc(N4CC[C@@H]5CNCC[C@@H]54)c4cn(C)nc34)cc(F)c2n1 (stereo in doubt) [Compound 101, N-(8-fluoro-2-methyl-imidazo[1,2-a]-pyridin-6-yl)-2-methyl-4-(octahydro-pyrrolo[3,2-c]-pyridin-1-yl)indazole-7-carboxamide hydrochloride] | 1000 to 10000 | 100 to 1000 |
| 1000 to 10000 | 100 to 1000 | 1000 to 10000 | < 100 | 100 to 1000 | 1000 to 10000 | CN[C@@H]1CN(c2ccc(C(=O)Nc3cc(F)c4nc(C)cn4c3)c3nn(C)cc23)C[C@@H]1C [Compound 108, N-(8-fluoro-2-methyl-imidazo[1,2-a]pyridin-6-yl)-2-methyl-4-[(3S,4S)-3-methyl-4-(methylamino)-pyrrolidin-1-yl]indazole-7-carboxamide] | > 10000 | 100 to 1000 |
| > 10000 | 1000 to 10000 | > 10000 | < 100 | 1000 to 10000 | 1000 to 10000 | Cc1cn2cc(NC(=O)c3ccc(N4CC[C@@H](NCC56CC(CO5)C6)C4)c4cn(C)nc34)cc(F)c2n1 [Compound 124, N-(8-fluoro-2-methyl-imidazo[1,2-a]pyridin-6-yl)-2-methyl-4-[(3R)-3-(2-oxabicyclo[2.1.1]hexan-1-ylmethylamino)pyrrolidin-1-yl]indazole-7-carboxamide] | > 10000 | 100 to 1000 |
| 1000 to 10000 | > 10000 | 1000 to 10000 | > 10000 | > 10000 | > 10000 | Cc1cn2cc(C(=O)Nc3ccc(N4CCNCC4)c4cn[nH]c34)cc(F)c2n1 [Compound 214, 8-fluoro-2-methyl-N-(4-piperazin-1-yl-1H-indazol-7-yl) imidazo[1,2-a]pyridine-6-carboxamide] | > 10000 | > 10000 |
| 1000 to 10000 | 100 to 1000 | 1000 to 10000 | < 100 | 100 to 1000 | 1000 to 10000 | C#CCN[C@@H]1CCN(c2ccc(C(=O)Nc3cc(F)c4nc(C)cn4c3)c3nn(C)cc23)C1 [Compound 122] | 1000 to 10000 | 100 to 1000 |
| 100 to 1000 | < 100 | 100 to 1000 | < 100 | < 100 | 100 to 1000 | COc1c(NC(=O)c2ccc(N3CCNCC3)c3cn[nH]c23)cn2cc(C)nc2c1F [Compound 211, N-(8-fluoro-7-methoxy-2-methylimidazo[1,2-a]pyridin-6-yl)-4-(piperazin-1-yl)-1H-indazole-7-carboxamide] | 100 to 1000 | < 100 |
| > 10000 | 1000 to 10000 | > 10000 | 1000 to 10000 | 1000 to 10000 | > 10000 | CCNC1CCN(c2ccc(C(=O)Nc3cn4cc(C)nc4c(F)c3OC)c3[nH]ccc23)CC1 [Compound 171, 4-[4-(ethylamino)piperidin-1-yl]-N-(8-fluoro-7-methoxy-2-methylimidazo[1,2-a]pyridin-6-yl)-1H-indole-7-carboxamide] | > 10000 | > 10000 |
| 1000 to 10000 | 100 to 1000 | 1000 to 10000 | < 100 | 100 to 1000 | 1000 to 10000 | Cc1cn2cc(NC(=O)c3ccc(N4CC[C@H](NCCO)C4)c4cn(C)nc34)cc(F)c2n1 [Compound 115, N-(8-fluoro-2-methylimidazo-[1,2-a]-pyridin-6-yl)-4-[(3S)-3-(2-hydroxy-ethylamino)-pyrrolidin-1-yl]-2-methylindazole-7-carboxamide] | 1000 to 10000 | 100 to 1000 |
| > 10000 | > 10000 | > 10000 | 1000 to 10000 | > 10000 | > 10000 | Cc1cn2cc(NC(=O)c3c(F)cc(N4CCNCC4)c4c3CN(C)C4)cc(F)c2n1 [Compound 230, 5-fluoro-N-(8-fluoro-2-methyl-imidazo[1,2-a]pyridin-6-yl)-2-methyl-7-piperazin-1-yl-isoindoline-4-carboxamide] | > 10000 | > 10000 |
| 1000 to 10000 | < 100 | 1000 to 10000 | < 100 | < 100 | 100 to 1000 | CCNC1CCN(c2ccc(C(=O)Nc3cn4cc(C)nc4c(F)c3OC)c3[nH]ncc23)CC1 [Compound 170, 4-[4-(ethylamino)piperidin-1-yl]-N-(8-fluoro-7-methoxy-2-methylimidazo[1,2-a]pyridin-6-yl)-1H-indazole-7-carboxamide] | 1000 to 10000 | 100 to 1000 |
| 1000 to 10000 | 100 to 1000 | 1000 to 10000 | < 100 | 100 to 1000 | 1000 to 10000 | CN[C@@H]1CN(c2ccc(C(=O)Nc3cc(F)c4nc(C)cn4c3)c3nn(C)cc23)C[C@H]1C [Compound 107, N-(8-fluoro-2-methyl-imidazo[1,2-a]pyridin-6-yl)-2-methyl-4-[(3R,4S)-3-methyl-4-(methylamino)pyrrolidin-1-yl]indazole-7-carboxamide] | > 10000 | 100 to 1000 |
